# Measurements taken from publication PMC10111423, “Antimalarial Imidazopyridines Incorporating an Intramolecular Hydrogen Bonding Motif: Medicinal Chemistry and Mechanistic Studies” (ACS Infectious Diseases, 2023).
# Columns and labels:
# [1] = Solubility; format: physicochemical; settings: pH 6.5, aqueous buffer
# Description: Table 1 In Vitro Antiplasmodium Activity, Cytotoxicity, BHIA, and Solubility | column: Solubility pH 6.5, μM
# [2] = In vitro microsomal stability, rat liver microsomes; format: in vitro ADME; settings: 1 μM, 0.4 mg/mL protein
# Method: (§1) Xenotech, Kansas, USA), suspended in 0.1 M phosphate buffer (pH 7.4). (Details of this assay are described in the Supporting Information.) page 20: fold to attain six assay concentrations of 100-0.001 μg/mL. […] was used as the reference compound in this assay. The highest concentration of DMSO, which was used as the negative control, had no measurable effect on cell viability. After 44 hours of exposure of the cells to the test compounds, a solution of MTT was added. This was followed by an additional 4 hours of incubation at 37 °C. The assay plates were centrifuged, medium removed, and DMSO was added to the crystals. The amount of formazan was ascertained by measuring the absorbance at 540 nm. GraphPad Prism software was then used to generate IC50 values through a non-linear dose-response curve analysis. β-Hematin Inhibition Assay 20 mM stock solutions of controls and test compounds were made in DMSO. A solution […] was added to every well in columns 1-11 of a 96-well plate. 140 μL of water and 40 μL of 305.5 μM NP-40 were added to column 12 to mediate the formation of beta-hematin. 20 μL of test compounds (20 mM) were added to column 12 and 100 μL of this solution serially diluted to column 2, leaving column 1 blank (0 μM of test compound). 178.8 μL aliquot of hematin stock was suspended in 20 ml of a 1 M acetate buffer at pH 4.9. 100 μL of this hematin suspension was then added into each well, and the plates were incubated for ±5 hrs at 37°C. Subsequently, 32 μL of pyridine solution (20% water, 20% acetone, 10% 2M HEPES buffer at pH 7.4 and 50% pyridine) and 60 μL of acetone were added to all wells. The absorbances of plate wells were recorded at 405 nm on a SpectraMax plate reader. Sigmoidal dose-response curves with variable slopes were fitted to the absorbance data using GraphPad Prism to obtain the IC50 values for each compound. In vitro Microsomal Stability Assay The in vitro microsomal stability assay was performed in duplicate in a 96-well micro titre […] individually in human (pool of 50, mixed gender), rat (pool of 711, male Sprague Dawley) and mouse (pool of 1634, male CD1) liver microsomes (final protein concentration of 0.4 mg/mL; Xenotech, Kansas, USA), suspended in 0.1M phosphate buffer (pH 7.4). Incubations were S20 page 21: started by addition of NADPH (1 mM) as cofactor and shaken for 30 minutes at 37 °C. The reactions were then quenched by adding 300 μL of ice-cold acetonitrile containing internal standard (carbamazepine, 0.0236 μg/mL) and centrifuged. The supernatant was transferred to a fresh 96-well plate and analysed by LC-MS/MS (Agilent Rapid Resolution HPLC, AB SCIEX 4500 MS). The relative loss of parent compound over time was monitored and plots (concentration vs. time) were prepared per compound to determine the first order rate constant for compound depletion. This was in turn used to calculate half-life, in vitro intrinsic clearance and in vivo hepatic extraction ratio.6 Metabolite Identification Studies […] microsomes (MLM, male mouse CD1, Lot No. 1510043, Xenotech), magnesium chloride (5 mM) and NADPH (1 mM) in sodium phosphate buffer (100 mM, pH 7.4) for 60 minutes while shaking. The samples were then prepared by ice-cold acetonitrile precipitation, centrifuged, and filtered for LC-MS/MS analysis. […] Fluorescence Live-cell Microscopy […] […]
# [3] = In vitro microsomal stability, mouse liver microsomes; format: in vitro ADME; settings: 1 μM, 0.4 mg/mL protein
# Method: as §1
# [4] = test system: chloroquine-sensitive (NF54) strain of P. falciparum; assay: In vitro asexual blood-stage antiplasmodium pLDH assay, NF54 strain; format: cell-based; settings: Plasmodium falciparum, NF54; pLDH, 72 h, n ≥ 3; read-out: In vitro antiplasmodium activity IC50 PfNF54 strain
# Method: (§2) Compounds were screened against multi-drug-resistant (K1) and sensitive (NF54) strains of P. falciparum in vitro using a parasite lactate dehydrogenase assay (pLDH) (the method is described fully in the Supporting Information). […]
# (§3) In vitro Asexual Blood Stage Antiplasmodium Assay
# (§4) Parasites were cultured as per the method of Trager and Jensen,1 with modifications. IC50 values were determined using parasite lactate dehydrogenase as a marker for survival (Makler […]
# (§5) et al, 1993). The test samples were prepared to a 10 mmol/L stock solution in 100% DMSO.
# (§6) Samples were tested as a suspension if not completely dissolved. Further dilutions to the desired starting concentration were freshly prepared in growth media on each occasion of the experiment. The standard antimalarial drugs chloroquine (CQ) and artesunate (Arts) were used as the reference drug in all experiments. A full dose-response was performed for all compounds in a 96-well plate to determine the concentration inhibiting 50% of parasite growth (IC50– value). Test samples were tested at a starting concentration of 6mmol/L, which was then serially diluted 2-fold in growth medium to generate the tested concentration range. The same dilution technique was used for all samples. CQ and Arts were tested from a starting concentration of 1µg/mL. The highest concentration of solvent to which the parasites were exposed was <0.1% and has no measurable effect on the parasite viability (data not shown).
# (§7) The assay plate was incubated at 37 °C for 72h in a sealed gas chamber under 3% O2 and 4% CO2 with the balance being N2. After 72h, the wells in the assay plate were gently resuspended, and 15µL from each well was transferred to a duplicate plate containing 100µL of Malstat reagent and 25µL of nitroblue tetrazolium solution in each well. Plates were left to develop for 20 minutes in the dark and then absorbance of each well was quantified using a spectrophotometer at 620nm wavelength.
# (§8) The remaining population of parasites at each concentration of the test compound was determined by comparing the absorbance of each well to the absorbance of a well containing […]
# (§9) the drug-free control. […]
# (§10) The initial 100 µg/mL solution is serially diluted 10-
# [5] = test system: multidrug-resistant (K1) strain of P. falciparum; assay: In vitro asexual blood-stage antiplasmodium pLDH assay, K1 strain; format: cell-based; settings: Plasmodium falciparum, 72 h, n ≥ 3, read-out: In vitro antiplasmodium activity IC50 PfK1 strain
# Method: as §2, §3, §4, §5, §6, §7, §8, §9, §10
Compound,solubility [1] [µM],"Microsomal EH (hepatic extraction ratio), rat [2]","Microsomal EH (hepatic extraction ratio), mouse [3]",IC50 [4] [nM],IC50 [5] [nM]
"CCN(CCNc1cc2[nH]c(C3CC3)nc2cn1)Cc1ccc(Cl)cc1O [Compound 5, 5-Chloro-2-(((2-((2-cyclopropyl-1H-imidazo[4,5-c]pyridin-6-yl)amino)ethyl)(ethyl)amino)methyl)phenol]",25,0.73,0.81,390,480
"CCN(CCNc1cc2[nH]c(-c3ccc(C(F)(F)F)nc3)nc2cn1)Cc1ccc(Cl)cc1O [Compound 19, 5-Chloro-2-((ethyl(2-((2-(6-(trifluoromethyl)pyridin-3-yl)-1H-imidazo[4,5-c]pyridin-6-yl)amino)ethyl)amino)methyl)phenol]",140,0.78,0.84,380,360
"CCN(CCNc1cc2[nH]c(C3(C)CC3)nc2cn1)Cc1ccc(Cl)cc1O [Compound 6, 5-Chloro-2-((ethyl(2-((2-(1-methylcyclopropyl)-1H-imidazo[4,5-c]pyridin-6-yl)amino)ethyl)amino)methyl)phenol]",200,0.73,0.90,490,6000

# Now those with a lower IC50 [4], led by results:
solubility [1] [µM],"Microsomal EH (hepatic extraction ratio), rat [2]","Microsomal EH (hepatic extraction ratio), mouse [3]",IC50 [4] [nM],IC50 [5] [nM],Compound
65,0.70,0.81,80,100,"CCN(CCNc1cc2[nH]c(-c3cccc(C(F)(F)F)c3)nc2cn1)Cc1ccc(Cl)cc1O [Compound 14, 5-Chloro-2-((ethyl(2-((2-(3-(trifluoromethyl)phenyl)-1H-imidazo[4,5-c]pyridin-6-yl)amino)ethyl)amino)methyl)phenol]"
15,0.75,0.88,340,1350,"CCN(CCNc1cc2[nH]c(C3CCCC3)nc2cn1)Cc1ccc(Cl)cc1O [Compound 1, 5-Chloro-2-(((2-((2-cyclopentyl-1H-imidazo[4,5-c]pyridin-6-yl)amino)ethyl)(ethyl)amino)methyl)phenol]"
